Experiments:
[1] = system: Human Serum Albumin (HSA); assay: Binding to albumin, fluorescence quenching; conditions: calculated from association constant KS for albumin concentration in blood of 44 mg/mL (660 μM); for fraction unbound: human, human serum albumin solution (10 µM HSA), pH 7.4, read-out: free fraction (albumin)
Experimental: Fluorescence lifetime and fluorescence intensity of HSA solutions were measured using the time-resolved Fluorescence Spectrophotometer Life Spec II (Edinburgh Instruments Ltd., Livingston, UK) with the sub-nanosecond pulsed EPLED diode emitting a light of the wavelength 280 nm. The spectrometer was equipped with electronically cooled photomultiplier Hamamatsu R928 connected with TCC900 PC Card, which incorporates all the electronic modules required for Time-Correlated Single Photon Counting (TCSPC). The fluorescence decays were recorded at an emission wavelength of 350 nm. The data were fitted with an exponential decay to obtain total fluorescence intensity and lifetime. Measurements were performed at room temperature using quartz cuvettes 3.5 × 10 mm. The exposure time of the sample was 30 s. A spectrophotometer Jasco V-550 was used for absorption measurements.
Human Serum Albumin (HSA, 97%) was purchased from Sigma Aldrich. For the fluorescence quenching measurements, the 10 µM PBS solution of HSA at pH 7.4 was prepared, and 10 mM stock solutions of studied compounds were prepared in DMSO (dimethylsulfoxide). The final concentration of studied compounds in HSA solution varied between 0 and 70 µM.
Fluorescence quenching of albumin can be described by the Stern–Volmer Equation [21]: (3) F0/F=KSV[Q]+1, where F0 and F are the fluorescence intensities in the absence and presence of quencher, respectively, [Q] is the concentration of quencher, and KSV is the Stern–Volmer quenching constant.
Due to the fact that a quencher can absorb light at the excitation and/or emission wavelengths, the measured intensity should be corrected according to the Formula [22]:(4) Fobserved=Fcorrect×10^−Aex×dex/2−Aem×dem/2, where Fobserved is the measured fluorescence, Fcorrect is the fluorescence that would be measured in the absence of absorption effect, Aex and Aem are the absorbances of ligand at the excitation (280 nm) and emission wavelength (350 nm), respectively, and dex and dem are the cuvette pathlength in the excitation and emission direction (0.35 cm and 1 cm, respectively).
As the fluorophore can be quenched by collisions or by complex formation with the quencher, there are two types of quenching: dynamic and static. They can be distinguished by lifetime measurements. […] If the quenching is known to be dynamic, then:(5) F0/F=KD[Q]+1=τ0/τ, where τ0 and τ are the lifetimes in the absence and presence of quencher, and KD is the dynamic quenching constant.
In many cases, both static and dynamic quenching occurs for the same fluorophore, then modified Stern–Volmer equation has the form:(6) F0/F=(KD[Q]+1)(KS[Q]+1)=τ0/τ(KS[Q]+1),
The dynamic portion of the quenching (KD[Q] + 1), according to Equation (5), can be determined by lifetime measurements. The portion (KS[Q] + 1) relates to static quenching, and KS is the association constant, which is given by:(7) KS=[F−Q]/[F][Q], where [F−Q] is the concentration of complex fluorophore–quencher, [F] is the concentration of uncomplexed fluorophore (concentration of free HSA molecules), and [Q] is the concentration of quencher.
In this study, the tested compounds were added to the HSA solution, and the fluorescence intensity and lifetime at 350 nm were measured for varying concentrations of ligands. On the basis of absorbance measurements of ligands at 280 nm and 350 nm, the correct fluorescence intensities were estimated using Equation (4). Then, the Stern–Volmer constants, dynamic quenching constants, and association constants of studied compounds were determined using Equations (3), (5) and (6), respectively.
Knowing the value of association constant KS, it is possible to determine the theoretical percentage of the bound and free fraction of the drug for the physiological concentration of albumin. […]

[2] = Chromatographic (RP-HPLC) examination of lipophilicity, Snyder–Soczewiński model; type: physicochemical; conditions: for logkw (ACN) / logkw (MeOH): RP-HPLC, extrapolated Snyder–Soczewiński curve; for logkw (ACN) / −S (ACN): acetonitrile as organic modifier; for logkw (MeOH) / −S (MeOH): methanol as organic modifier; for Δ = |logkw-MeOH − logkw-ACN|: difference of logkw between modifiers; for −S (ACN) / −S (MeOH): slope of the Snyder–Soczewiński regression curve; for Compliance with the lipophilicity assumption of the Lipiński’s rule (logkw below 5): analyses using methanol as a modifier
Experimental: The chromatographic analysis was carried out on a Shimadzu device equipped with a pump system (LC-20AD model), a detector with a diode bench (SPD-M20A model), a degasser (DGU-20A 5R model), a chromatographic oven (CTO-10AS VP), autosampler (SIL-20AC HT model), and chromatographic column (LiChrospher 100 RP-18, 5 μm, Poznań, Poland). Analyses were performed, leading to a multicratic elution. The mobile phase was methanol (J. T. Backer, Phillipsburg, NJ, USA) or acetonitrile (J. T. Backer) and water (Hydrolab, HPL5UV model, Straszyn, Poland) in different volume ratios. In individual analyses, the concentration of the organic modifier expressed as a […] was 0.75–0.95 with a constant step of 0.05. The test compounds were dissolved in methanol. The injection volume was 10 µL. The flow was set at 1 mL/min, the temperature of the chromatography oven at 25 °C, and the detector temperature at 2 °C higher than the ambient temperature. Compounds were detected in the range 190–800 nm. All samples were tested in duplicate at least. Column dead time (tM) was determined using uracil (Sigma Aldrich). The retention coefficient was calculated using the following formula:(1) k=tR/tM−1, where tR is the retention time of the test compound in a given eluent composition, and tM is the chromatographic column dead time.
The value of lipophilicity was determined using the linear dependence of the decimal logarithm from the retention coefficient (logk) and the concentration of the organic modifier in the mobile phase, which was expressed as a volume fraction. For this purpose, the following formula was used:(2) logk=logkw+Sφ, where logk is the decimal logarithm of the retention coefficient, logkw is the value obtained by extrapolating the curve, S is the slope of the regression curve, and φ is the volume fraction of the organic modifier.
The coefficient of determination (R^2) was also calculated for the prepared curves.

A549 cells = assay: Antiproliferative activity, MTT protocol; type: cell-based, human; conditions: 0.01 mg/mL, 72 h, relative to control culture
Experimental: Mouse melanoma (B16F10), human lung carcinoma (A549), and human cervix (HeLa) cell lines (kindly gifted by Prof. Tomasz Drewa, a Chair of Urology, Department of Regenerative Medicine, Collegium Medicum, Nicolaus Copernicus University, Bydgoszcz, Poland) were cultivated at 37 °C, controlled CO2 atmosphere (Binder, Tuttlingen, Germany), and high humidity with RPMI cell culture medium (with L-glutamine and sodium bicarbonate, Sigma-Aldrich), supplemented with 10% of fetal bovine serum (FBS, Biowest, Nuaillé, France), as well as antibiotics (penicillin, streptomycin) and antimycotics (amphotericin B) (Sigma-Aldrich). Combretastatin A4 (CA4), doxorubicin (DoX), and […] were purchased from Sigma-Aldrich.
Cells were counted with an automated cell counter (Countess® II FL, Invitrogen by Thermo Fisher Scientific Inc., Waltham, MA, USA). A number of 1 × 10^3 (B16F10, A549) or 2.5 × 10^3 cells were plated in each well of 96-well plate (Nunc Edge 2F, Thermo Fisher Scientific Inc.) and left for 24 h incubation prior to drug administration. After this period, the medium was replaced with a fresh medium containing the drugs (at final concentration of 0.01 mg/mL) and left for incubation for the next 72 h. A solution of thiazol blue tetrazolium (MTT, Sigma-Aldrich) was prepared in PBS at concentration of 5 mg/mL and administrated to the cell culture medium at the volume of 10% of the initial medium volume. After 2 h of incubation, the medium was removed, and crystals of formazan were solubilized in isopropanol (Sigma-Aldrich). Absorbance readout was conducted using plate reader Multiskan Spectrum (Thermo Electron Corporation, Waltham, MA, USA) at 570 nm.
Combretastatin A4 (CA4), doxorubicin (DX), and […] were employed as positive controls. Biological evaluation was performed as three independent experiments; mean response and standard deviation were calculated using Excel software (v. 2013, Microsoft Corporation, Redmond, WA, USA).

Compound	bound fraction (albumin) [1]	fraction unbound [1]	logkw (ACN) [2]	logkw (MeOH) [2]	Δ = |logkw-MeOH − logkw-ACN| [2]	−S (ACN) [2]	−S (MeOH) [2]	Compliance with the lipophilicity assumption of the Lipiński’s rule (logkw below 5) [2]	Inhibition of development and division of A549 cells (in words) (A549 cells)
O=C1C(=Cc2ccccc2)C(=O)c2ccccc21 [Compound 3A, 2-benzylidene-1H-indene-1,3(2H)-dione]	97%	0.03	2.2433	3.3210	1.0777	2.4449	3.3278		
COc1ccc(C=C2C(=O)c3ccccc3C2=O)cc1 [Compound 3C, 2-(4-methoxybenzylidene)-1H-indene-1,3(2H)-dione]	94%	0.06	2.3042	3.3554	1.0512	2.4879	3.2782		
O=C1C(=Cc2ccc(O)cc2)C(=O)c2ccccc21 [Compound 3J, 2-[(4-hydroxyphenyl)methylidene]-1H-indene-1,3(2H)-dione]	96%	0.04		2.3814	1.3880		2.5802		
O=C1C(=Cc2ccc(N(c3ccccc3)c3ccccc3)cc2)C(=O)c2ccccc21 [Compound 3I, 2-{[4-(diphenylamino)phenyl]methylidene}-1H-indene-1,3(2H)-dione]	83%	0.17	3.8489	5.3524	1.5035	3.7589	5.0483	do not meet this basic assumption of the Lipiński’s rule	
O=C1C(=Cc2ccoc2)C(=O)c2ccccc21 [Compound 3H, 2-[(furan-3-yl)methylidene]-1H-indene-1,3(2H)-dione]	95%	0.05	1.9162	2.5521	0.6359	2.2011	2.6243		
Cc1ccc(Oc2ccc(C=C3C(=O)c4ccccc4C3=O)cc2)cc1 [Compound 3D, 2-{[4-(4-methylphenoxy)phenyl]methylidene}-1H-indene-1,3(2H)-dione]	97%	0.03	3.5726	5.6763	2.1037	3.5570	5.4798	do not meet this basic assumption of the Lipiński’s rule	most strongly inhibited
COc1ccc(C=C2C(=O)c3ccccc3C2=O)cc1O [Compound 3E, 2-[(3-hydroxy-4-methoxyphenyl)methylidene]-1H-indene-1,3(2H)-dione]	97%	0.03	1.5356	2.2321	0.6965	1.9201	2.4114		
CN(C)c1ccc(C=C2C(=O)c3ccccc3C2=O)cc1 [Compound 3B, 2-{[4-(dimethylamino)phenyl]methylidene}-1H-indene-1,3(2H)-dione]	94%	0.06	2.2394	3.2790	1.0396	2.3613	3.1597		
O=C1C(=CC2=Cc3cc(O)ccc3OC2)C(=O)c2ccccc21 [Compound 3K, 2-[(6-hydroxy-2H-1-benzopyran-3-yl)methylidene]-1H-indene-1,3(2H)-dione]	92%	0.08	1.7720	2.9717	1.1997	2.1213	3.0667		
